From patent US10485844B2, “Methods for treating severe atopic dermatitis by administering an IL-4R inhibitor” (Regeneron Pharmaceuticals, Inc., priority 2016, dated 2019)
Marks after values point to notes of the source that are not given here.

Tested on: adult patients with severe AD
Assay: 16-week randomized placebo-controlled trial of dupilumab + TCS in adults with severe AD not adequately controlled with or intolerant to cyclosporine A (efficacy and safety);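 note: subcutaneous dosing after a 600 mg loading dose on day 1, with standardized medium-potency TCS background from day −14, compared against matching injectable placebo arm, 1:1:1 randomization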
Settings: for % change from baseline in SCORAD / % change in baseline in weekly average of peak daily pruritus NRS / % patients with EASI-75 / % patients with IGA 0 or 1 and reduction from baseline of ≥2 points / Change from baseline in % BSA / Change from baseline in DLQI / Change from baseline in HADS / Change from baseline in POEM / % patients with EASI-75 for patients with prior CSA use / % patients with reduction of weekly average peak daily pruritus NRS ≥4 from baseline: week 16; for % patients with EASI-75 for patients with prior CSA use: N = 69; for % patients with reduction of weekly average peak daily pruritus NRS ≥4 from baseline: N = 94
[1] = 300 mg dupilumab q2w + TCS (N = 107), 16-week treatment period
[2] = 300 mg dupilumab q2w + TCS, Week 16
[3] = expected at the end of the study period

“dupilumab: fully human anti-IL-4R antibody; heavy chain SEQ ID NO: 9, light chain SEQ ID NO: 10” was tested, and the “DLQI score, mean change from baseline to Week 16 (±SE)” value (300 mg dupilumab q2w + TCS) was −9.7 (0.64)***^, the “DLQI score: Proportion of Patients with ≥4-point improvement at Week 16” value (300 mg dupilumab q2w + TCS) was 85 (79.4)*** % and the “POEM score, mean change from baseline to Week 16 (±SE)” value (300 mg dupilumab q2w + TCS) was −11.7 (0.68)***. The “POEM score: Proportion of patients with ≥4-point improvement at Week 16” value (300 mg dupilumab q2w + TCS) was 89 (83.2)*** %, the “Proportion of patients with DLQI 0 or 1 at Week 16” value (300 mg dupilumab q2w + TCS) was 32 (29.9)** % and the “Atopic dermatitis (AE), n (%)” value [1] was “(7.5) %”. For the same substance, the “Conjunctivitis allergic, n (%)” value [1] was “(15.0) %”, the “Conjunctivitis, n (%)” value [1] was “(11.2) %” and the “Headache, n (%)” value [1] was “(9.3) %”. For the same substance, the “Nasopharyngitis, n (%)” value [1] was “(20.6) %”, the “Number of patients with TEAEs, n (%)” value [1] was “(72.0) %” and the “Rhinitis allergic, n (%)” value [1] was “(6.5) %”. For the same substance, the “DLQI: Proportion of patients reporting “no impact” or “little impact”: Affected social, leisure activity” value [2] was “(91.6)*** %”, the “DLQI: Proportion of patients reporting “no impact” or “little impact”: Caused any sexual difficulties” value [2] was “(93.5)*** %” and the “DLQI: Proportion of patients reporting “no impact” or “little impact”: How embarrassed, self-conscious” value [2] was “(86.9)*** %”. For the same substance, the “DLQI: Proportion of patients reporting “no impact” or “little impact”: How itchy, sore, painful, stinging” value [2] was “(83.2)*** %”, the “DLQI: Proportion of patients reporting “no impact” or “little impact”: How much a problem is treatment” value [2] was “(89.7)*** %” and the “DLQI: Proportion of patients reporting “no impact” or “little impact”: Influenced clothes you wear” value [2] was “(84.1)*** %”. For the same substance, the “DLQI: Proportion of patients reporting “no impact” or “little impact”: Interfered shopping, home, yard” value [2] was “(93.5)*** %”, the “DLQI: Proportion of patients reporting “no impact” or “little impact”: Made it difficult to do any sports” value [2] was “(90.7)*** %” and the “DLQI: Proportion of patients reporting “no impact” or “little impact”: Prevented/problem at working or studying” value [2] was “(91.6)*** %”. The “DLQI: Proportion of patients reporting “no impact” or “little impact”: Problem partner, friends, relative” value [2] was “(95.3)*** %”, the “POEM: Proportion of patients reporting ‘no days’ or ‘1-2 days’: Last week days been weeping/oozing” value [2] was “(87.9)*** %” and the “POEM: Proportion of patients reporting ‘no days’ or ‘1-2 days’: Last week days skin been bleeding” value [2] was “(84.1)*** %”. The “POEM: Proportion of patients reporting ‘no days’ or ‘1-2 days’: Last week days skin been cracked” value [2] was “(75.7)*** %”, the “POEM: Proportion of patients reporting ‘no days’ or ‘1-2 days’: Last week days skin been flaking off” value [2] was “(65.4)*** %” and the “POEM: Proportion of patients reporting ‘no days’ or ‘1-2 days’: Last week days skin been itchy” value [2] was “(45.8)*** %”. The “POEM: Proportion of patients reporting ‘no days’ or ‘1-2 days’: Last week days skin felt dry or rough” value [2] was “(59.8)*** %”, the “POEM: Proportion of patients reporting ‘no days’ or ‘1-2 days’: Last week nights sleep been disturbed” value [2] was “(83.2)*** %” and the “SCORAD VAS sleep loss, LS mean percent change from baseline to Week 16 (±SE)” value (300 mg dupilumab q2w + TCS, n = 98) was −61.2 (34.38)* percent. For the same substance, the “SCORAD VAS sleep loss, LS mean change from baseline to Week 16 (±SE)” value (300 mg dupilumab q2w + TCS, n = 106) was −3.0 (0.25)***^, the “Pruritus NRS: Proportion of patients with ≥3-point improvement at Week 16” value (300 mg dupilumab q2w + TCS, patients with baseline peak pruritus NRS ≥3) was 56/99 (56.6)*** % and the “Pruritus NRS: Proportion of patients with ≥4-point improvement at Week 16” value (300 mg dupilumab q2w + TCS, patients with baseline peak pruritus NRS ≥4) was 43/94 (45.7)*** %. For the same substance, the “deaths during the study” value (all treatment groups) was “No deaths”, the “skin infections vs placebo” value (combined dupilumab-treated groups) was “fewer skin infections” and the “% change in EASI score from baseline to week 16” value (dupilumab 300 mg q2w + TCS) was −79.8%. The “Mean weekly dose of TCS use during the treatment period” value (dupilumab 300 mg q2w + TCS) was 15.0, the “% change from baseline in SCORAD” value (dupilumab 300 mg q2w + TCS) was −58.3% and the “% change in baseline in weekly average of peak daily pruritus NRS” value (dupilumab 300 mg q2w + TCS) was −53.9%. For the same substance, the “% patients with EASI-75” value (dupilumab 300 mg q2w + TCS) was 62.6%, the “% patients with IGA 0 or 1 and reduction from baseline of ≥2 points” value (dupilumab 300 mg q2w + TCS) was 40.2% and the “Change from baseline in % BSA” value (dupilumab 300 mg q2w + TCS) was −39.2 % BSA. For the same substance, the “Change from baseline in DLQI” value (dupilumab 300 mg q2w + TCS) was −9.6, the “Change from baseline in HADS” value (dupilumab 300 mg q2w + TCS) was −6.1 and the “Change from baseline in POEM” value (dupilumab 300 mg q2w + TCS) was −11.9. For the same substance, the “% patients with EASI-75 for patients with prior CSA use” value (dupilumab 300 mg q2w + TCS) was 58.0%, the “% patients with reduction of weekly average peak daily pruritus NRS ≥4 from baseline” value (dupilumab 300 mg q2w + TCS) was 45.7% and the “% change in EASI score from baseline to week 16” value (dupilumab 300 mg qw + TCS) was −78.2%. The “Mean weekly dose of TCS use during the treatment period” value (dupilumab 300 mg qw + TCS) was 17.5, the “% change from baseline in SCORAD” value (dupilumab 300 mg qw + TCS) was −62.4% and the “% change in baseline in weekly average of peak daily pruritus NRS” value (dupilumab 300 mg qw + TCS) was −51.7%. The “% patients with EASI-75” value (dupilumab 300 mg qw + TCS) was 59.1%, the “% patients with IGA 0 or 1 and reduction from baseline of ≥2 points” value (dupilumab 300 mg qw + TCS) was 39.1% and the “Change from baseline in % BSA” value (dupilumab 300 mg qw + TCS) was −37.5 % BSA. The “Change from baseline in DLQI” value (dupilumab 300 mg qw + TCS) was −8.9, the “Change from baseline in HADS” value (dupilumab 300 mg qw + TCS) was −5.2 and the “Change from baseline in POEM” value (dupilumab 300 mg qw + TCS) was −11.4. For the same substance, the “% patients with EASI-75 for patients with prior CSA use” value (dupilumab 300 mg qw + TCS) was 56.5%, the “% patients with reduction of weekly average peak daily pruritus NRS ≥4 from baseline” value (dupilumab 300 mg qw + TCS) was 40.4% and the “Injection site reactions vs placebo” value (dupilumab groups, higher rate in 300 mg qw than 300 mg q2w, no severe ISRs) was “more common”. The “tolerability / safety profile” value (dupilumab plus concomitant TCS, 16-week treatment period) was “generally well tolerated”, the “incidence of conjunctivitis vs placebo” value (dupilumab-treated groups, more events in 300 mg Q2W than 300 mg QW) was “higher incidence” and the “improvement in at least one AD-associated parameter as compared to placebo” value [3] was “significant improvement”. For the same substance, the “less TCS used than placebo” value [3] was “up to 50%” and the Serious adverse events (in each treatment group) was 2 events.
